This note sets out measurements from patent publication US9980943B2, “Methods of treating muscular dystrophy” (BOARD OF REGENTS OF THE NEVADA SYSTEM OF HIGHER EDUCATION, …, priority 2013, dated 2018).

Holding throughout (format): cell-based, mouse
Assay [1] has as its system α7 integrin (LacZ reporter in α7βgal+/− myoblasts). In words: Myoblast α7+/LacZ integrin FDG assay (Burkin assay in myoblasts, 96-well). The settings on record: α7+/LacZ myoblasts, 96-well.
Assay [2] has as its system α7 integrin (LacZ reporter in α7+/LacZ myotubes). Put plainly: Myotube α7 integrin FDG assay (Burkin assay in myotubes, 96-well). The note with it: myotubes.
Assay [3] relates to β-galactosidase in CMV-LacZ C2C12 myotubes. Put plainly: CMV-LacZ secondary screen in C2C12 myotubes (β-Gal stabilizing assay). The settings on record: C2C12 CMV-LacZ myotubes, fold relative to DMSO. In outline: (§1)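 CMV-LacZ C2C12 line (clonal, FDG-screened); myoblasts/myotubes dosed 0.5–40 μM (0.5, 1, 5, 10, 20, 40 μM); n=2 per point; β-gal stabilization read-out.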
Assay [4] has as its system β-galactosidase in CMV-LacZ C2C12 myoblasts. Put plainly: CMV-LacZ secondary screen in C2C12 myoblasts (β-Gal stabilizing assay). The settings on record: CMV-LacZ C2C12 myoblasts. The gist of the method: as §1

Structures are written as SMILES.

For the compound `O=C(N/N=C/c1c[nH]c2ccccc12)c1cc(Cl)ccc1O` [MLS001196572-01], the “Burkin Assay in Myoblasts, signal relative to DMSO” value amounted to 0.8826 in assay [1] (0.5 uM); 0.7626 in assay [1] (1 uM); 1.224 in assay [1] (5 uM); 0.9483 in assay [1] (10 uM); 0.9362 in assay [1] (20 uM); 0.9345 in assay [1] (40 uM). Besides, the “Burkin Assay in Myotubes, α7 integrin LacZ reporter signal relative to DMSO” value in assay [2] (0.5 uM) was 0.9236; in assay [2] (1 uM) it was 0.8882; in assay [2] (5 uM), 1.148; in assay [2] (10 uM), 0.9294; in assay [2] (20 uM), 0.9805; in assay [2] (40 uM), 0.7181. Besides, the “CMV-LACZ in Myotubes, signal relative to DMSO” value is 0.9632 in assay [3] (0.5 uM); 0.9379 in assay [3] (1 uM); 0.9853 in assay [3] (5 uM); 1.0223 in assay [3] (10 uM); 1.1456 in assay [3] (20 uM); 1.1422 in assay [3] (40 uM). Besides, the “CMV-LACZ in Myoblasts (β-galactosidase activity relative to DMSO)” value in assay [4] (0.5 uM) turned out to be 1.0105; in assay [4] (1 uM) it was 1.3172; in assay [4] (5 uM), 1.0605; in assay [4] (10 uM), 0.9456; in assay [4] (20 uM), 1.0767; in assay [4] (40 uM) it was 1.0778.

On to `Cc1cc(C)cc(OCC(=O)N/N=C/c2ccccn2)c1` [MLS000710669-01], for which the “Burkin Assay in Myoblasts, signal relative to DMSO” value in assay [1] (0.5 uM) was determined as 1.025; in assay [1] (1 uM) it was 1.05; in assay [1] (5 uM), 1.0722; in assay [1] (10 uM), 0.9941; in assay [1] (20 uM) it was 1.848; in assay [1] (40 uM), 0.8243. The “Burkin Assay in Myotubes, α7 integrin LacZ reporter signal relative to DMSO” value stood at 1.045 in assay [2] (0.5 uM); 1.163 in assay [2] (1 uM); 1.054 in assay [2] (5 uM); 0.9 in assay [2] (10 uM); 0.9967 in assay [2] (20 uM); 1.0073 in assay [2] (40 uM). The “CMV-LACZ in Myotubes, signal relative to DMSO” value is 0.9341 in assay [3] (0.5 uM); 0.8881 in assay [3] (1 uM); 0.9690 in assay [3] (5 uM); 1.2372 in assay [3] (10 uM); 0.8682 in assay [3] (20 uM); 1.1824 in assay [3] (40 uM). Moreover, the “CMV-LACZ in Myoblasts (β-galactosidase activity relative to DMSO)” value in assay [4] (0.5 uM) came out at 1.0969; in assay [4] (1 uM), 0.9975; in assay [4] (5 uM), 1.0325; in assay [4] (10 uM), 1.0823; in assay [4] (20 uM), 1.1319; in assay [4] (40 uM), 0.8778.

As for `CCOC(=O)C1=C(CC)Nc2ccccc2N=C1NC(=O)c1ccc(OC)c(S(=O)(=O)N2CCCCC2C)c1` (stereo not drawn) [MLS000776409-01], the “Burkin Assay in Myoblasts, signal relative to DMSO” value in assay [1] (0.5 uM) worked out at 1.1194; in assay [1] (1 uM) it was 1.007; in assay [1] (5 uM), 0.9389; in assay [1] (10 uM), 0.9838; in assay [1] (20 uM), 0.5087; in assay [1] (40 uM) it was 0.3444. Also, the “Burkin Assay in Myotubes, α7 integrin LacZ reporter signal relative to DMSO” value in assay [2] (0.5 uM) is 0.8925; in assay [2] (1 uM), 1.029; in assay [2] (5 uM), 0.882; in assay [2] (10 uM), 0.9284; in assay [2] (20 uM), 0.8949; in assay [2] (40 uM), 0.8056. The “CMV-LACZ in Myotubes, signal relative to DMSO” value in assay [3] (0.5 uM) stood at 1.0552; in assay [3] (1 uM), 0.9752; in assay [3] (5 uM) it was 1.0186; in assay [3] (10 uM) it was 1.1035; in assay [3] (20 uM), 1.1040; in assay [3] (40 uM), 1.1540. Further, the “CMV-LACZ in Myoblasts (β-galactosidase activity relative to DMSO)” value in assay [4] (0.5 uM) was 1.1220; in assay [4] (1 uM) it was 0.9103; in assay [4] (5 uM), 0.8929; in assay [4] (10 uM), 0.9052; in assay [4] (20 uM), 1.3344; in assay [4] (40 uM), 0.2105.

For the compound `CN(/C(=N/S(=O)(=O)c1cccs1)c1ccccc1)c1ccccc1` [MLS000582947-01], the “Burkin Assay in Myoblasts, signal relative to DMSO” value in assay [1] (0.5 uM) stood at 1.236; in assay [1] (1 uM), 0.9632; in assay [1] (5 uM), 0.943; in assay [1] (10 uM) it was 0.9807; in assay [1] (20 uM), 0.9417; in assay [1] (40 uM) it was 0.7737. The “Burkin Assay in Myotubes, α7 integrin LacZ reporter signal relative to DMSO” value in assay [2] (0.5 uM) is 0.9003; in assay [2] (1 uM), 1.155; in assay [2] (5 uM), 1.02; in assay [2] (10 uM), 0.9759; in assay [2] (20 uM), 1.102; in assay [2] (40 uM), 0.791. Further, the “CMV-LACZ in Myotubes, signal relative to DMSO” value in assay [3] (0.5 uM) turned out to be 0.8848; in assay [3] (1 uM), 0.9610; in assay [3] (5 uM), 0.9280; in assay [3] (10 uM), 0.9127; in assay [3] (20 uM) it was 1.0729; in assay [3] (40 uM), 1.0247. Also, the “CMV-LACZ in Myoblasts (β-galactosidase activity relative to DMSO)” value in assay [4] (0.5 uM) is listed as 0.9691; in assay [4] (1 uM), 0.8991; in assay [4] (5 uM), 1.1273; in assay [4] (10 uM) it was 1.0067; in assay [4] (20 uM), 0.7811; in assay [4] (40 uM), 0.8819.

Consider `O=C1Nc2ccccc2/C1=C/c1ccccc1F` [MLS001202389-01], for which the “Burkin Assay in Myoblasts, signal relative to DMSO” value was 0.9323 in assay [1] (0.5 uM); 0.9481 in assay [1] (1 uM); 1.009 in assay [1] (5 uM); 1.1004 in assay [1] (10 uM); 0.5816 in assay [1] (20 uM); 0.2556 in assay [1] (40 uM). Besides, the “Burkin Assay in Myotubes, α7 integrin LacZ reporter signal relative to DMSO” value in assay [2] (0.5 uM) is on record as 0.9181; in assay [2] (1 uM), 0.9393; in assay [2] (5 uM) it was 0.9936; in assay [2] (10 uM), 1.053; in assay [2] (20 uM) it was 0.6412; in assay [2] (40 uM), 0.5594. The “CMV-LACZ in Myotubes, signal relative to DMSO” value in assay [3] (0.5 uM) stood at 1.1558; in assay [3] (1 uM) it was 1.1821; in assay [3] (5 uM) it was 1.0432; in assay [3] (10 uM), 1.1312; in assay [3] (20 uM), 1.0900; in assay [3] (40 uM), 0.9311. For the same compound, the “CMV-LACZ in Myoblasts (β-galactosidase activity relative to DMSO)” value in assay [4] (0.5 uM) turned out to be 1.0237; in assay [4] (1 uM), 1.1108; in assay [4] (5 uM), 1.0084; in assay [4] (10 uM), 0.8920; in assay [4] (20 uM) it was 0.6115; in assay [4] (40 uM) it was 0.5081.
